Our source for the Activity, inhibition and IC50 values is ChEMBL document CHEMBL5696441 (Nat Chem Biol, 2011).

As a reminder, the inhibition is the drop in the measured response relative to a control, in per cent. The term IC50 denotes the concentration that gives 50% inhibition.

Series [1] deals with T1, Serine/threonine-protein kinase Nek2 (Homo sapiens) (UniProt P51955).
T1 sequence (whole entry): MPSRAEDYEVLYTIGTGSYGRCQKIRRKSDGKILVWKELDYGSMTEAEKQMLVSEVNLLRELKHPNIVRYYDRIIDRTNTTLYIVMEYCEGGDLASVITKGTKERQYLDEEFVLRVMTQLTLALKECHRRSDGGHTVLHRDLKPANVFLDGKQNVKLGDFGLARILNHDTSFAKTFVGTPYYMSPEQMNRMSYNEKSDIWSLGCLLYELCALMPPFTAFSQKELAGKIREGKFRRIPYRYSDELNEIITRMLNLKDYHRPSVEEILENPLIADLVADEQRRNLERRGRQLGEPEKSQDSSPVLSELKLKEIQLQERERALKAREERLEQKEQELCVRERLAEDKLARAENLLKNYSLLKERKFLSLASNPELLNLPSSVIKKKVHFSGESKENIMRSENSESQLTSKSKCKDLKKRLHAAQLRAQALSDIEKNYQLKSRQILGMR
The series can be described thus: Inhibition of human NEK2 assessed as residual activity at 1 uM using RB-CTF as substrate in presence of 33P-ATP by ProQinase assay relative to control.

The target in series [2] is Tyrosine-protein kinase BTK (Homo sapiens) (UniProt Q06187). As to the kind of experiment: Inhibition of BTK (unknown origin) assessed as remaining activity at 1 uM by Kinome scan method relative to control.
The target in series [3] is CYP2D6 (Homo sapiens, UniProt P10635). As to the kind of experiment: Inhibition of CYP2D6 (unknown origin) at 10 uM relative to control. Type of series: ADME.
Series [4] addresses TAK1/TAB1 (Homo sapiens) (UniProt Q15750+O43318). The series can be described thus: Inhibition of human MAP3K7/MAP3K7IP1 assessed as residual activity at 1 uM using RB-S6P as substrate in presence of 33P-ATP by ProQinase assay relative to control. In kind it is protein-complex assay.
The target in series [5] is Mitogen-activated protein kinase 13 (Homo sapiens) (UniProt O15264). The series can be described thus: Inhibition of human p38delta assessed as residual activity at 1 uM using RBER-CHKtide as substrate in presence of 33P-ATP by ProQinase assay relative to control.
The test system of series [6] is Hepatocyte growth factor receptor (Homo sapiens), P08581 [F1200I]. As to the kind of experiment: Inhibition of human MET F1200I mutant assessed as residual activity at 1 uM using poly(Ala,Glu,Lys,Tyr)6:2:5:1 as substrate in presence of 33P-ATP by ProQinase assay relative to control.
The target in series [7] is NUAK family SNF1-like kinase 2 (Homo sapiens) (UniProt Q9H093). As to the kind of experiment: Inhibition of SNARK (unknown origin) assessed as remaining activity at 1 uM by Kinome scan method relative to control.
Series [8] has as its system Hepatocyte growth factor receptor (Homo sapiens), P08581 [D1228H]. The series can be described thus: Inhibition of human MET D1228H mutant assessed as residual activity at 1 uM using poly(Ala,Glu,Lys,Tyr)6:2:5:1 as substrate in presence of 33P-ATP by ProQinase assay relative to control.
For series [9], the target named is Serine/threonine-protein kinase 10 (Homo sapiens) (UniProt O94804). The series can be described thus: Inhibition of LOK (unknown origin) assessed as remaining activity at 1 uM by Kinome scan method relative to control.
Series [10] addresses Casein kinase I isoform alpha-like (Homo sapiens) (UniProt Q8N752). The series can be described thus: Inhibition of CSNK1A1L (unknown origin) assessed as remaining activity at 1 uM by Kinome scan method relative to control.
Series [11] addresses Protein kinase C theta type (Homo sapiens) (UniProt Q04759). As to the kind of experiment: Inhibition of human PKCtheta assessed as residual activity at 1 uM using 3xChocktide-PKC(19-31) as substrate in presence of 33P-ATP by ProQinase assay relative to control.
Series [12] can be described thus: Anti-inflammatory activity against human derived medium respond PBMC cells assessed as inhibition in stimulated IL-1alpha cytokine release incubated for 2 hrs in the presence of LPS/SEB/aCD28 by Luminex based sandwich immunoassay. In kind it is functional, cell-based.
Series [13] concerns the target Ribosomal protein S6 kinase alpha-4 (Homo sapiens) (UniProt O75676). As to the kind of experiment: Inhibition of human RPS6KA4 assessed as residual activity at 1 uM using RBER-CHKtide as substrate in presence of 33P-ATP by ProQinase assay relative to control.
Series [14] deals with Serine/threonine-protein kinase Nek11 (Homo sapiens) (UniProt Q8NG66). The series can be described thus: Inhibition of human NEK11 assessed as residual activity at 1 uM using MBP as substrate in presence of 33P-ATP by ProQinase assay relative to control.
For series [15], the target named is ALK tyrosine kinase receptor (Homo sapiens) (UniProt Q9UM73). As to the kind of experiment: Inhibition of ALK (unknown origin) assessed as remaining activity at 1 uM by Kinome scan method relative to control.
Series [16] deals with Tyrosine-protein kinase Fer (Homo sapiens) (UniProt P16591). The series can be described thus: Inhibition of human FER assessed as residual activity at 1 uM using polyEY as substrate in presence of 33P-ATP by ProQinase assay relative to control.
The target of series [17] is Tyrosine-protein kinase CSK (Homo sapiens) (UniProt P41240). As to the kind of experiment: Inhibition of CSK (unknown origin) assessed as remaining activity at 1 uM by Kinome scan method relative to control.
Series [18] can be described thus: Anti-inflammatory activity against human derived medium respond PBMC cells assessed as inhibition in stimulated IL-5 cytokine release incubated for 2 hrs in the presence of LPS/SEB/aCD28 by Luminex based sandwich immunoassay. Type of series: functional, cell-based.
Series [19] concerns the target T2, Tyrosine-protein kinase Tec (Homo sapiens) (UniProt P42680).
T2 sequence (whole entry): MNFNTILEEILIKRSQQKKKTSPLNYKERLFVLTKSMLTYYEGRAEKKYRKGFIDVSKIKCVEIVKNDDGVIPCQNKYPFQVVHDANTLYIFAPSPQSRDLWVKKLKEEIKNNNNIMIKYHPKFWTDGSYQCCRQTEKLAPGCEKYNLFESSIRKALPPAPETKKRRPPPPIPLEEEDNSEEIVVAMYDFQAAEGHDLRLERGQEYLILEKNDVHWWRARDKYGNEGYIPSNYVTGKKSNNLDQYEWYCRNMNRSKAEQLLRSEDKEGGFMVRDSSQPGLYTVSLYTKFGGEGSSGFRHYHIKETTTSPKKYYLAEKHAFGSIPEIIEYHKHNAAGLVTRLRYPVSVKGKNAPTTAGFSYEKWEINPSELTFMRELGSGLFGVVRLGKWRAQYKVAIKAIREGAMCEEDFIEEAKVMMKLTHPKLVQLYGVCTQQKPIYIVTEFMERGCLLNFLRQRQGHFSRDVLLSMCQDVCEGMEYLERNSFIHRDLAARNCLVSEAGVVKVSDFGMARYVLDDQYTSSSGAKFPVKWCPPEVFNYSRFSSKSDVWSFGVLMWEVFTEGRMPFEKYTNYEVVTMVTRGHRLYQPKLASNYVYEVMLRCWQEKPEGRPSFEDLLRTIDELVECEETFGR
As to the kind of experiment: Inhibition of human TEC assessed as residual activity at 1 uM using polyEY as substrate in presence of 33P-ATP by ProQinase assay relative to control.

Each structure is given as a SMILES string.

Chain of Protein kinase C theta type (Homo sapiens) (Q04759 whole entry, looked up): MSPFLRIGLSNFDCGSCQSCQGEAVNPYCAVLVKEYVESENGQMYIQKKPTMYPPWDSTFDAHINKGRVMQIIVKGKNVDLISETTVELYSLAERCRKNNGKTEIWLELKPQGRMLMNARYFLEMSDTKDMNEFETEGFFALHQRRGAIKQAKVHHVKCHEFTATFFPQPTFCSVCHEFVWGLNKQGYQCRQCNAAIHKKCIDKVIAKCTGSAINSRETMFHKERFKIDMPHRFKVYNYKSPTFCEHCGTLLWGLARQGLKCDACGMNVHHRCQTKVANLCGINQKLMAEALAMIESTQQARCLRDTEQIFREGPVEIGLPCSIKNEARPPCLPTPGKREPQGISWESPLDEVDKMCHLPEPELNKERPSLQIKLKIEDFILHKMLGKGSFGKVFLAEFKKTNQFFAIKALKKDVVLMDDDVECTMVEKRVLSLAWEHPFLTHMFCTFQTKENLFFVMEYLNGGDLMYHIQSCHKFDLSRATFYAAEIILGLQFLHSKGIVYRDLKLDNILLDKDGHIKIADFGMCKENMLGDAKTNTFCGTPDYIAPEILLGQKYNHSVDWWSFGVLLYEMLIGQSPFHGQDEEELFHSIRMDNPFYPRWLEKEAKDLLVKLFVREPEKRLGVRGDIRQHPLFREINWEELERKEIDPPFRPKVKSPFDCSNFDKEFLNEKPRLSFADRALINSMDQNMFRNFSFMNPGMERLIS
Chain of Ribosomal protein S6 kinase alpha-4 (Homo sapiens) (O75676 whole entry, looked up): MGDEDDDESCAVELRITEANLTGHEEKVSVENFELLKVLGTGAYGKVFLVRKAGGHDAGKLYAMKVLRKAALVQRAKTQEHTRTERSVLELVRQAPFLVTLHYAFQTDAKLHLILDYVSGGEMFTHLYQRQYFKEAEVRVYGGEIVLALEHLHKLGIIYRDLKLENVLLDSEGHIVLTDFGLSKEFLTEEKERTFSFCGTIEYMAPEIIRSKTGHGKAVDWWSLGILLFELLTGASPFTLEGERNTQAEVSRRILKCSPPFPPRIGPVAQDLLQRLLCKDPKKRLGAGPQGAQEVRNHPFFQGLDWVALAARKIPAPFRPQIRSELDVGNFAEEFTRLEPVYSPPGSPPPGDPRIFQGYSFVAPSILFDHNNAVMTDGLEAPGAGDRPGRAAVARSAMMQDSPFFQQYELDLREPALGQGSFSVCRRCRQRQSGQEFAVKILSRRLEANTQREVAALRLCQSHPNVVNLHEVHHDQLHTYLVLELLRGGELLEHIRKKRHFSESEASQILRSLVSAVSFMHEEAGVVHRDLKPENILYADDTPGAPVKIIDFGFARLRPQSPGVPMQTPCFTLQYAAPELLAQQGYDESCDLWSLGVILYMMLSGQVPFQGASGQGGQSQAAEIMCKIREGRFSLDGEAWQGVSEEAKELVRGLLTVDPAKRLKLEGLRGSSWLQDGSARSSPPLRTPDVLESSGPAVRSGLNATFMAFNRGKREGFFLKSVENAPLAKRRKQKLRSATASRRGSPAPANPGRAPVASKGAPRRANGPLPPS
Chain of Casein kinase I isoform alpha-like (Homo sapiens) (Q8N752 whole entry, canonical isoform): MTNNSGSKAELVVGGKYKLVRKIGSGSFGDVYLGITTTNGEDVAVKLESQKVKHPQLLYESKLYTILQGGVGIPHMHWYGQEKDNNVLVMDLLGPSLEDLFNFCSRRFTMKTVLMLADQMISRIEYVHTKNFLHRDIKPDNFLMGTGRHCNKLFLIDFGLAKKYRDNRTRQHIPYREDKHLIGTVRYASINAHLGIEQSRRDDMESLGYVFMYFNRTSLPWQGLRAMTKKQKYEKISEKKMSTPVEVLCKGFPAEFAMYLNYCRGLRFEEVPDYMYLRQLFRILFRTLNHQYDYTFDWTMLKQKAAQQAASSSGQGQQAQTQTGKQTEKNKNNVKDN
Chain of CYP2D6 (P10635 whole entry): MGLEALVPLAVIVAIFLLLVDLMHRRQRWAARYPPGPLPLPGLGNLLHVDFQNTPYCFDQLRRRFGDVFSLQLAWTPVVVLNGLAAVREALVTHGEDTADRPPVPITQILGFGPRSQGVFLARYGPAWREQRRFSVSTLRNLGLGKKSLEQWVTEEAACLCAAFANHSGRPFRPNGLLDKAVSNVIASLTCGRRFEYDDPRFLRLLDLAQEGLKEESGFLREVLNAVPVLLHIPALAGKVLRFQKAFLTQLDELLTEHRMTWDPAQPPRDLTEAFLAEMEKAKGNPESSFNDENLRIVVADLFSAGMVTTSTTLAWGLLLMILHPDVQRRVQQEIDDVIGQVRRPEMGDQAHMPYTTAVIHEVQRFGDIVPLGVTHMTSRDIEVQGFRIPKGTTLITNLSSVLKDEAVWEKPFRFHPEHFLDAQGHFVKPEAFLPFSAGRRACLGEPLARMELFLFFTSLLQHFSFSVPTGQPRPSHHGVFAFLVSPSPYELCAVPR
Chain of Tyrosine-protein kinase BTK (Homo sapiens) (Q06187 whole entry): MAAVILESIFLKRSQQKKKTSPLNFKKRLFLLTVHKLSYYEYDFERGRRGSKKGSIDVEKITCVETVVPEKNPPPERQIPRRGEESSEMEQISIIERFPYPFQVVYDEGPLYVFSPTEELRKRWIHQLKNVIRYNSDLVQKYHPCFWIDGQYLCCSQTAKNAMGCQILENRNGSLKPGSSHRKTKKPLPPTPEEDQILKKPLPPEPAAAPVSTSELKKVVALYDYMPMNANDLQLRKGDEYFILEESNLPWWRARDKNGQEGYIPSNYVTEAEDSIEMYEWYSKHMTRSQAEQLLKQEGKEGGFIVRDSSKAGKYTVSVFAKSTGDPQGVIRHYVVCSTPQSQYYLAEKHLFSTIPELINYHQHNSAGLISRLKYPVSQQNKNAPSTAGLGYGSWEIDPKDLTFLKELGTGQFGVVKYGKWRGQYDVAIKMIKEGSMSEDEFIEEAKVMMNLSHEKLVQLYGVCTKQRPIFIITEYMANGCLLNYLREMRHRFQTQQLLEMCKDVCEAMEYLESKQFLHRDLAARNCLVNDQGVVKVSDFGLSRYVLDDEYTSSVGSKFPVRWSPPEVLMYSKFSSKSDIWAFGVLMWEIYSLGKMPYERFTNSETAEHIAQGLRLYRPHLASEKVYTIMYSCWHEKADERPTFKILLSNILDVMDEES
Chain of Tyrosine-protein kinase Fer (Homo sapiens) (P16591 whole entry, looked up): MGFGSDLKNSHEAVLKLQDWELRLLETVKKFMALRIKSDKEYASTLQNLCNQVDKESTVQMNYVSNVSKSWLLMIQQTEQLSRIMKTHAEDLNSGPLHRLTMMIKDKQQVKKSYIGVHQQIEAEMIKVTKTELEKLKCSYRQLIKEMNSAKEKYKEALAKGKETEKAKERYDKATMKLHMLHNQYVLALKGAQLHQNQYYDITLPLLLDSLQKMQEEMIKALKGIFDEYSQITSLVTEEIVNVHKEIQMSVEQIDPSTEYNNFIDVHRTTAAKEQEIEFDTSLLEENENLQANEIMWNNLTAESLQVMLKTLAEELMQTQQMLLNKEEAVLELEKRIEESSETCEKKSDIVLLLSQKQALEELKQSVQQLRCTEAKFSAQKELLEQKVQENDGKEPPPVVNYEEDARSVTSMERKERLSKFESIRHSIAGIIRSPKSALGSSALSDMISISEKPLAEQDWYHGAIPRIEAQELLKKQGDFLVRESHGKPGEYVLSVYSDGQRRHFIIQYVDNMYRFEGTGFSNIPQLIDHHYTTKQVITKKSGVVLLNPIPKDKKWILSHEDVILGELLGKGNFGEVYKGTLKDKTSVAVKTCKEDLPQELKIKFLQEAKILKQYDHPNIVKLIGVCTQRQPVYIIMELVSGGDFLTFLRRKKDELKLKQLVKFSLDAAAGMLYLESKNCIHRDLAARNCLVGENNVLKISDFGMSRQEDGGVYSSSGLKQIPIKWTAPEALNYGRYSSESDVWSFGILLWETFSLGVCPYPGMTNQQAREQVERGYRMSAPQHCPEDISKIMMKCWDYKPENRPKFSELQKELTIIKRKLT
Chain of Serine/threonine-protein kinase 10 (Homo sapiens) (O94804 whole entry, looked up, canonical isoform): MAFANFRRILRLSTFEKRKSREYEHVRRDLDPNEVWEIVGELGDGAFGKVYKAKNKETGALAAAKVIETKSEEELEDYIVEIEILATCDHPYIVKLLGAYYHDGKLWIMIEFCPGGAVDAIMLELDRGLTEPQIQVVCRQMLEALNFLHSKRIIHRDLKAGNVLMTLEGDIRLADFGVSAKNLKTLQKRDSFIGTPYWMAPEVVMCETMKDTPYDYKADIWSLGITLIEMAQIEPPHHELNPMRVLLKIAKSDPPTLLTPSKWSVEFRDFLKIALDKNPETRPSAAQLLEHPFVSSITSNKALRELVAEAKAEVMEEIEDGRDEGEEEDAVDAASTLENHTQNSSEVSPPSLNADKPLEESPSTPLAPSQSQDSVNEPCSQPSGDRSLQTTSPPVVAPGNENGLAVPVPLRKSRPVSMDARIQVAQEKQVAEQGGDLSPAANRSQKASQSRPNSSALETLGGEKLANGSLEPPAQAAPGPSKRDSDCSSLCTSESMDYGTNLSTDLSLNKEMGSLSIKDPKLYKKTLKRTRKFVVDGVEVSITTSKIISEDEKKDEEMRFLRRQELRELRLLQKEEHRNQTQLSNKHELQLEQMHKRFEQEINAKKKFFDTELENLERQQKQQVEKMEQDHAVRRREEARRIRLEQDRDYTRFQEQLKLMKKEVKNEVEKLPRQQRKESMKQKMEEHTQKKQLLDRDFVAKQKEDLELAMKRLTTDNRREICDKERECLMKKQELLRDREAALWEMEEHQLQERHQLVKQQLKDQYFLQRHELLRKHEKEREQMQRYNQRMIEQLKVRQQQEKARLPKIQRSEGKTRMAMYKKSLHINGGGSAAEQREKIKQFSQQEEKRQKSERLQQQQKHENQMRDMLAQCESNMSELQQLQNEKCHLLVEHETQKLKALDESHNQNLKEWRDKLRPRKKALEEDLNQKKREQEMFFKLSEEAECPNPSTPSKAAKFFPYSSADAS

Regarding `O=C1c2ccc(Nc3ccc(F)cc3F)cc2CCc2ccc(OC[C@H](O)CO)cc21` [Skepinone-L], the Activity is 85% in series [1]; 100% in series [2]; 80% in [4]; 80% in [5]; 96% in series [6]; 100% in [7]. For the same molecule, the Activity in series [8] was 97%; in [9], 96%; in series [10] it was 98%; in series [11], 99%; in [13], 107%; in series [14], 113%. Also, the Activity in series [15] was 100%; in series [16] it was 101%; in series [17] it was 100%; in [19], 115%. For the same molecule, in series [3], the inhibition at 10 µM is -21%. The IC50 in series [12] was 370 nM; in series [18], “Not Active”.
